Patent US20060134063A1, “Agents for proliferating pancreatic beta-cells of the islets of langerhans, agents for suppressing apoptosis of said cells, and screening of candidate compounds for these agents” (priority 2000, published 2006)

Legend:
[1] = test system: 90% depancreatized rats; settings: PARP inhibitor-treated rats; cited from earlier work
[2] = target: T1, poly(ADP-ribose) synthetase/polymerase (PARP) (Rattus norvegicus, UniProt P27008); assay: GMSA binding reaction of RINm5F nuclear extracts, effects of ADP-ribosylation; type: biochemical; settings: 1 mM β-NAD+ in the GMSA binding reaction; read-out: concentrations of half maximal inhibition (quenching of the effect of β-NAD+ on the GMSA band)
T1 construct: Nuclear extracts from RINm5F cells were prepared as described; endogenous in cells; host or cells: RINm5F (rat insulinoma) nuclear extract
Experimental: The nuclear extract (10 μg) was incubated in a final volume of 20 μl of buffer containing 20 mM Tris-HCl (pH 7.9), 2 mM MgCl2, 50 mM NaCl, 2 mM EDTA, 10% glycerol, 0.1% Nonidet P-40, 1 mM DTT, 50 μg/ml bovine serum albumin and 1 μg of poly(dI-dC). After incubation for 10 min at room temperature, 2.5 pmol of double-stranded DNA, previously labeled by an exchange reaction using MEGALABEL (Takara Shuzo) and [γ-^32P]ATP (Amersham Pharmacia Biotech), were added and incubated for 30 min at room temperature, then the binding reactions were resolved on pre-run 6% acrylamide gel. […] After electrophoresis, DNA/proteins were electrophoretically transferred to a PolyScreen™ PVDF membrane (NEN).
Poly(ADP-ribosyl)ation of nuclear proteins was performed in the same condition as GMSA in the presence of 62 nM [adenylate-^32P]NAD^+ (2×10^6 cpm, NEN). The ADP-ribosylated proteins were precipitated by the addition of 9 volume of acetone, separated by SDS-PAGE (12.5%) and autoradiographed.

[3] = test system: Reg gene; assay: RT-PCR of Reg gene expression in RINm5F cells; type: cell-based, rat; settings: 24 h with stimulants
Experimental: The Reg gene expression was analyzed by RT-PCR. The cells were harvested after 24 h of culturing in a medium supplemented with stimulants, and total RNA was prepared using cesium trifluoroacetate as described in Takasawa, S. et al. (1993) J. Biol. Chem., 268, 26052-26054. RT-PCR was performed using primers corresponding to nucleotides 23 to 43 and 572 to 593 of rat Reg mRNA (Terazono, K. et al. (1988) J. Biol. Chem., 263, 2111-2114).

[4] = test system: RINm5F cell lines, #1, #6, and #24, which stably express the Reg protein receptor; assay: TUNEL apoptosis assay in RINm5F cell lines #1, #6, #24 expressing Reg protein receptor; type: cell-based, rat; settings: 1,000 nM Reg protein; 20 ng/ml IL-6, 100 nM dexamethasone, 10 mM nicotinamide; 24 h
Experimental: Rat insulinoma RINm5F cell lines, #1, #6, and #24, which stably express Reg protein receptor (Kobayashi, S. et al. (2000) J. Biol. Chem. 275, 10723-10726) were similarly cultured as in Example 4 and 1,000 nM Reg protein and HGF at varied concentrations, 0, 2.5, and 25 ng/ml were added thereto. Twenty-four hours after the addition of Reg protein/HGF, apoptosis was measured by TUNEL method using an Apoptosis Screening kit (Wako Pure Chemical Industries Ltd., Osaka, Japan) as described in Kobayashi, S. et al. (2000) J. Biol. Chem. 275, 10723-10726.

T1 sequence (P27008 whole entry): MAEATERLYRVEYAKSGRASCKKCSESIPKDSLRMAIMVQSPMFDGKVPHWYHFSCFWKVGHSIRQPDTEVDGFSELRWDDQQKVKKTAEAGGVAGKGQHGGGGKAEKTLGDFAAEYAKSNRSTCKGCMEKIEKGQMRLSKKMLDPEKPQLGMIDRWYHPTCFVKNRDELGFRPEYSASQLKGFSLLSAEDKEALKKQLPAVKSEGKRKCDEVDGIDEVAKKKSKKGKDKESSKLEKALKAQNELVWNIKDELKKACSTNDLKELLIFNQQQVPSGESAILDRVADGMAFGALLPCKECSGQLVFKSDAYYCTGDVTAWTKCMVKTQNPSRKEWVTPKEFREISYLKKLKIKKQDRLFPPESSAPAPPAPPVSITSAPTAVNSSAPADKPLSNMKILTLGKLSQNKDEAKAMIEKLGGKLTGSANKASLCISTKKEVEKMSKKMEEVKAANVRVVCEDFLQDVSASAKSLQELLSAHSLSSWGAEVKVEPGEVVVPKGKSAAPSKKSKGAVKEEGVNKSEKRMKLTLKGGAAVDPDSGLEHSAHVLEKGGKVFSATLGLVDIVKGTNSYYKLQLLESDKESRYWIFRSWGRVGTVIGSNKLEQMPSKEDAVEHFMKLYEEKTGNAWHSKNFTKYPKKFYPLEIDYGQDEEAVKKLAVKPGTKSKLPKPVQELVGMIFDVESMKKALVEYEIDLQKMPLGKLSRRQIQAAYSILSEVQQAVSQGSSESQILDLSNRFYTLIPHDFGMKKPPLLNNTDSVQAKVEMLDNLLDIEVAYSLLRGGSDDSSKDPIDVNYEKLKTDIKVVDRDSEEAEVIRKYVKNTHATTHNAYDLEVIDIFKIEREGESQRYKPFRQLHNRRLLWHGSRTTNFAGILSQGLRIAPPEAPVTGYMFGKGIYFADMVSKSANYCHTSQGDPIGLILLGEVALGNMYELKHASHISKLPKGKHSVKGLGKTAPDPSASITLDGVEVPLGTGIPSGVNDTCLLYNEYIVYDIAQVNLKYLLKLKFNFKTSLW

In the case of `NC(=O)c1cccnc1` [nicotinamide], the “development of diabetes after 90% pancreatectomy” value [1] is listed as “preventing the development of diabetes”, the IC50 [2] is listed as 250 µM and the “Reg gene expression (Reg mRNA)” value [3] is listed as “no effect on Reg expression”. The “apoptosis induced by Reg protein (TUNEL)” value [4] was “did not”.
